# Assay: clinical
# Conditions: in vivo, iv
# Excerpt: The drug-drug interaction study was a phase 1, single-center, multiarm, open-label, randomized, three-period crossover study. The objective was to evaluate the DDI potential and the PK of SPR741 coadministered with each of three partner antibiotics as well as the DDI and PK effects of three partner antibiotics administered alone and with SPR741. The study comprised a screening phase (day −28 to day −2), three treatment arms (day 1 to day 8 for each arm), and an end-of-study follow-up (day 9). Each subject participated in screening, one treatment arm, and the end-of-study follow-up. The maximum duration of participation for each subject was approximately 37 days. Subjects remained in the clinical unit from the day before dosing (day −1) to 24 h after the third and last dose period (day 8).
# The DDI study consisted of three treatment arms with three dosing periods in each arm (days 1, 4, and 7). In random sequence, subjects received a single dose of study treatments with a 2-day washout period between each assigned treatment. In treatment arm 1, subjects received 400 mg of SPR741 i.v. over 1 h, 400 mg of SPR741 i.v. over 1 h plus 1.0 g of ceftazidime i.v. over 1 h, and 1.0 g of ceftazidime i.v. over 1 h. In treatment arm 2, subjects received 400 mg of SPR741 i.v. over 1 h, 400 mg of SPR741 i.v. over 1 h plus 4.5 g of piperacillin-tazobactam i.v. over 1 h, and 4.5 g of piperacillin-tazobactam i.v. over 1 h.
# For both studies, maximum plasma concentration (Cmax), area under the concentration-time curve from time zero to the last measurable time point (AUC0-t), area under the concentration-time curve from time zero to infinity (AUC0-inf), time to maximum concentration (Tmax), terminal elimination rate constant (kel), terminal half-life (t1/2), terminal clearance (CL), and volume of distribution (V) were determined. PK parameters were determined using WinNonlin Phoenix, version 6.4.
# For the SAD phase, blood samples were obtained predose (within 10 min), at 30 min following the start of infusion, at the end of infusion, and at 75, 90, 105, 120, and 150 min and 3, 4, 5, 6, 8, 10, 12, and 24 h following the start of infusion. For the MAD phase, blood was obtained predose (within 10 min), at 30 min following the start of infusion, at the end of infusion, and at 90 and 150 min and 3, 4, 5, 6, and 8 h following the start of infusion (day 1, first dose; day 14, last dose). Five additional blood samples were obtained at 10, 12, 24, 36, and 48 h following the start of infusion of the last dose (morning of day 14). For the DDI study, blood samples for determining plasma concentrations of SPR741 and each partner antibiotic were obtained predose (within −10 min), at 30 min, and at 1 h, 1 h 15 min, 1 h 30 min, 1 h 45 min, 2, 4, 8, 12, and 24 h postdose for each dose period. Plasma samples for drug concentration measurements were analyzed using a validated high-pressure liquid chromatography tandem mass spectrometry (HPLC-MS/MS) method. In brief, samples were spiked with a stable isotope-labeled internal standard and then extracted by protein precipitation before injection onto the HPLC-MS/MS system. Unique transitions were monitored for all test articles and internal standards. Plasma concentrations below the limit of quantitation were reported as 0.
# In the SAD/MAD study, geometric means were calculated for AUC and Cmax values. Analyses using linear models were performed to assess dose proportionality (both single dose and multiple dose), time dependence, accumulation, and attainment of steady state (multiple dose). Dose proportionality was assessed using linear models for the SAD and MAD cohorts separately. […] Point estimates and 90% confidence intervals (CIs), using the residual mean square error obtained from the ANOVA, were constructed for the comparisons between treatments. The point and CI estimates were back-transformed to give estimates of the ratios (percentages) of the geometric LSMs and corresponding 90% CIs.
"AUC0-inf, geometric LSM, reference treatment",AUC0-t,"AUC0-τ, geometric LSM, reference treatment",AUC(0-inf),CL,Cmax,"Cmax, geometric LSM, reference treatment",Tmax,V,kel,Compound
"163,000 h·ng/ml","162,000 ± 22,400 (13.8) ng·h/ml","163,000 h·ng/ml","163,000 ± 22,500 (13.8) ng·h/ml",6.3 ± 0.8 (12.8) liters/h,"70,200 ± 5,790 (8.2) ng/ml","70,300 ng/ml",1.0 ± 0 (0) h,24.0 ± 3.1 (12.8) liters,0.26 ± 0.01 (3.1) 1/h,"CC(C)(O/N=C(\C(=O)N[C@@H]1C(=O)N2C(C(=O)[O-])=C(C[n+]3ccccc3)CS[C@H]12)c1csc(N)n1)C(=O)O [Ceftazidime, ceftazidime]"
"228,000 h·ng/ml","240,000 ± 33,000 (13.7) ng·h/ml","228,000 h·ng/ml","240,000 ± 33,000 (13.7) ng·h/ml",19.1 ± 3.0 (15.8) liters/h,"154,000 ± 23,500 (15.2) ng/ml","145,000 ng/ml",1.0 ± 0 (1.2) h,60.7 ± 10.6 (17.4) liters,0.32 ± 0.02 (5.6) 1/h,"CCN1CCN(C(=O)N[C@@H](C(=O)N[C@@H]2C(=O)N3[C@@H]2SC(C)(C)[C@@H]3C(=O)O)c2ccccc2)C(=O)C1=O [Piperacillin, piperacillin]"
"30,200 h·ng/ml","32,000 ± 5,060 (15.8) ng·h/ml","30,200 h·ng/ml","32,000 ± 5,060 (15.8) ng·h/ml",16.1 ± 3.0 (18.4) liters/h,"18,500 ± 2,610 (14.1) ng/ml","17,600 ng/ml",1.0 ± 0 (1.2) h,41.6 ± 6.5 (15.6) liters,0.40 ± 0.12 (30.8) 1/h,"C[C@]1(Cn2ccnn2)[C@H](C(=O)O)N2C(=O)C[C@H]2S1(=O)=O [Tazobactam, tazobactam]"

# Same assay, conditions: in vivo, iv
row,t1/2,Compound
1,2.7 ± 0.1 (3.1) h,"CC(C)(O/N=C(\C(=O)N[C@@H]1C(=O)N2C(C(=O)[O-])=C(C[n+]3ccccc3)CS[C@H]12)c1csc(N)n1)C(=O)O [Ceftazidime, ceftazidime]"
2,2.2 ± 0.1 (5.7) h,"CCN1CCN(C(=O)N[C@@H](C(=O)N[C@@H]2C(=O)N3[C@@H]2SC(C)(C)[C@@H]3C(=O)O)c2ccccc2)C(=O)C1=O [Piperacillin, piperacillin]"
3,1.9 ± 0.4 (22.4) h,"C[C@]1(Cn2ccnn2)[C@H](C(=O)O)N2C(=O)C[C@H]2S1(=O)=O [Tazobactam, tazobactam]"

# Reference: paper PMC6709486, “Safety, Tolerability, Pharmacokinetics, and Drug Interaction Potential of SPR741, an Intravenous Potentiator, after Single and Multiple Ascending Doses and When Combined with β-Lactam Antibiotics in Healthy Subjects” (Antimicrobial Agents and Chemotherapy, 2019)
